Test results from ChEMBL document CHEMBL5042495, “Lead Optimization of Influenza Virus RNA Polymerase Inhibitors Targeting PA-PB1 Interaction” (J Med Chem, 2022).
pEC50: −log10 of the molar value.

Tests used:
[1] = system: Influenza A virus; test: Antiviral activity against Influenza A virus A/WSN/33(H1N1) strain infected in MDCK cells assessed as reduction in viral infection incubated for 48 hrs by crystal violet staining based assay; format: functional, organism-based
[2] = Cytotoxicity in dog MDCK cells assessed as reduction in cell viability incubated for 48 hrs by crystal violet staining based assay; format: toxicity, Canis lupus familiaris

Work on `CC(C)c1ccc2[nH]c(=O)c(CN(Cc3ccc(C(C)(C)C)cc3)C(C)c3ccc(F)cc3)cc2c1` (centres undefined) yielded a pEC50 [1] of 5.27 and a CC50 at 48 h [2] of 13100 nM.

In the case of `CCc1ccc(CN(Cc2ccc(F)cc2)Cc2cc3ccc(C)cc3[nH]c2=O)cc1`, the pEC50 [1] was 5.74 and the CC50 at 48 h [2] was over 33000 nM.

`Cc1ccc2cc(C(N(Cc3ccc(F)cc3)Cc3ccc(C(C)C)cc3)C(F)(F)F)c(=O)[nH]c2c1` (centres undefined) showed a CC50 at 48 h [2] of over 33000 nM.

For `Cc1ccc2cc(CN(Cc3ccc(C(C)(C)C)cc3)CC3CCCCC3)c(=O)[nH]c2c1`, the pEC50 [1] was 5.72 and the CC50 at 48 h [2] was over 10000 nM.

With `COc1ccc(C(C)N(Cc2ccc(C(C)(C)C)cc2)Cc2cc3cc(Br)ccc3[nH]c2=O)cc1Cl` (centres undefined) the pEC50 [1] was 6.28 and the CC50 at 48 h [2] was over 10000 nM.

`Cc1ccc2cc(CN(Cc3ccc(C(C)(C)C)cc3)C3CCCC3)c(=O)[nH]c2c1` showed a CC50 at 48 h [2] of over 10000 nM.

With `Cc1ccc2[nH]c(=O)c(CN(Cc3ccc(SC(F)F)cc3)Cc3ccc(C(C)(C)C)cc3)cc2c1` the pEC50 [1] was 6.19 and the CC50 at 48 h [2] was over 5000 nM.

`Cc1ccc2[nH]c(=O)c(CN(Cc3ccc(C(C)(C)C)cc3)C(C)c3ccc(N(C)C)c(Cl)c3)cc2c1` (centres undefined) showed a pEC50 [1] of 6.92 and a CC50 at 48 h [2] of 9800 nM.

For `Cc1ccc2[nH]c(=O)c(CN(Cc3ccc(SC(F)(F)F)cc3)Cc3ccc(C(C)(C)C)cc3)cc2c1`, the pEC50 [1] was 5.89 and the CC50 at 48 h [2] was over 5000 nM.

For `COc1ccc(C(C)N(Cc2ccc(C(C)(C)C)cc2)Cc2cc3cc(C4CC4)ccc3[nH]c2=O)cc1Cl` (centres undefined), the pEC50 [1] was 7.16 and the CC50 at 48 h [2] was over 10000 nM.

Work on `CCc1ccc2[nH]c(=O)c(CN(Cc3ccc(F)cc3)Cc3ccc(C(C)(C)C)cc3)cc2c1` yielded a pEC50 [1] of 6.19 and a CC50 at 48 h [2] of over 33000 nM.

For `Cc1ccc2cc(CN(Cc3ccc(C(C)(C)C)cc3)Cc3cc(F)cc(F)c3)c(=O)[nH]c2c1`, the pEC50 [1] was 5.46 and the CC50 at 48 h [2] was over 33000 nM.

For `CCc1ccc2[nH]c(=O)c(CN(Cc3ccc(C(C)(C)C)cc3)C(C)c3ccc(OC)c(Cl)c3)cc2c1` (centres undefined), the pEC50 [1] was 6.77 and the CC50 at 48 h [2] was over 10000 nM.

`Cc1ccc2cc(CNCc3ccc(F)cc3)c(=O)[nH]c2c1` showed a CC50 at 48 h [2] of over 33000 nM.

With `CC(C)c1ccc2[nH]c(=O)c(CN(Cc3ccc(C(C)(C)C)cc3)C(C)c3ccc(N(C)C)c(Cl)c3)cc2c1` (centres undefined) the pEC50 [1] was 6.17 and the CC50 at 48 h [2] was over 10000 nM.

Compound `CCc1ccc2[nH]c(=O)c(CN(Cc3ccc(C(C)(C)C)cc3)C(C)c3ccc(F)cc3)cc2c1` (centres undefined) has a pEC50 [1] of 6.28 and a CC50 at 48 h [2] of 2800 nM.

Compound `Cc1ccc2[nH]c(=O)c(CN(Cc3cccc(F)c3)Cc3ccc4ccccc4c3)cc2c1` has a pEC50 [1] of 5.51 and a CC50 at 48 h [2] of over 5000 nM.

Compound `Cc1ccc2cc(C(C)N(Cc3ccc(F)cc3)Cc3ccc(C(C)C)cc3)c(=O)[nH]c2c1` (centres undefined) has a pEC50 [1] of 5.72 and a CC50 at 48 h [2] of over 33000 nM.

In the case of `CCc1ccc2[nH]c(=O)c(CN(Cc3cccc(F)c3)Cc3ccc4ccccc4c3)cc2c1`, the pEC50 [1] was 5.39 and the CC50 at 48 h [2] was over 5000 nM.

In the case of `Cc1ccc2[nH]c(=O)c(CN(Cc3ccc(OC(F)F)cc3)Cc3ccc(C(C)(C)C)cc3)cc2c1`, the pEC50 [1] was 6.57 and the CC50 at 48 h [2] was over 5000 nM.

`CCc1ccc2[nH]c(=O)c(CN(Cc3ccc(C(C)(C)C)cc3)Cc3ccc(F)c(F)c3)cc2c1` showed a pEC50 [1] of 4.20 and a CC50 at 48 h [2] of over 33000 nM.

`Cc1ccc2cc(CN(Cc3ccc(F)cc3)Cc3ccc(C(C)(C)C)cc3)c(=O)[nH]c2c1` showed a pEC50 [1] of 5.80 and a CC50 at 48 h [2] of over 33000 nM.

`Cc1ccc2[nH]c(=O)c(CN(Cc3ccc(C(C)(C)C)cc3)[C@@H](C)c3ccc(F)cc3)cc2c1` gave a pEC50 [1] of 6.30 and a CC50 at 48 h [2] of over 5000 nM.

`Cc1ccc2[nH]c(=O)c(CN(Cc3ccc(O)cc3)Cc3ccc(C(C)(C)C)cc3)cc2c1` showed a pEC50 [1] of 5.68 and a CC50 at 48 h [2] of 4900 nM.

Compound `CCOc1ccc(CN(Cc2ccc(C(C)(C)C)cc2)Cc2cc3cc(C)ccc3[nH]c2=O)cc1` has a pEC50 [1] of 6.27 and a CC50 at 48 h [2] of over 10000 nM.

In the case of `CSc1ccc(CN(Cc2ccc(C(C)(C)C)cc2)Cc2cc3cc(C)ccc3[nH]c2=O)cc1`, the pEC50 [1] was 6.29 and the CC50 at 48 h [2] was over 5000 nM.

For `Cc1ccc2cc(CN(Cc3ccc(F)cc3)Cc3ccc(C(C)C)cc3)c(=O)[nH]c2c1`, the pEC50 [1] was 5.70 and the CC50 at 48 h [2] was over 33000 nM.

`CCc1ccc2[nH]c(=O)c(CN(Cc3ccc(C(C)(C)C)cc3)C(C)c3ccc(OC)cc3)cc2c1` (centres undefined) showed a pEC50 [1] of 6.66 and a CC50 at 48 h [2] of over 5000 nM.

`Cc1ccc2[nH]c(=O)c(CN(Cc3ccc(C#N)cc3)Cc3ccc(C(C)(C)C)cc3)cc2c1` gave a pEC50 [1] of 6.30 and a CC50 at 48 h [2] of over 5000 nM.

For `Cc1ccc2[nH]c(=O)c(CN(Cc3ccc(F)cc3)Cc3cccc4ccccc34)cc2c1`, the pEC50 [1] was 5.74 and the CC50 at 48 h [2] was over 5000 nM.

`COc1ccc([C@H](C)N(Cc2ccc(OC(F)(F)F)cc2)Cc2cc3ccccc3[nH]c2=O)cc1` gave a pEC50 [1] of 5.72 and a CC50 at 48 h [2] of over 10000 nM.

In the case of `CC(c1ccc(N(C)C)c(Cl)c1)N(Cc1ccc(C(C)(C)C)cc1)Cc1cc2cc(Br)ccc2[nH]c1=O` (centres undefined), the pEC50 [1] was 7.00 and the CC50 at 48 h [2] was 6100 nM.

`COc1ccc([C@H](C)N(Cc2ccc(C(C)(C)C)cc2)Cc2cc3cc(C(C)C)ccc3[nH]c2=O)cc1` showed a pEC50 [1] of 6.32 and a CC50 at 48 h [2] of over 10000 nM.

With `CC(c1ccc(OC(F)(F)F)c(Cl)c1)N(Cc1ccc(C(C)(C)C)cc1)Cc1cc2cc(C3CC3)ccc2[nH]c1=O` (centres undefined) the pEC50 [1] was 5.92 and the CC50 at 48 h [2] was over 10000 nM.

With `CCc1ccc2[nH]c(=O)c(CN(Cc3ccc(C(C)(C)C)cc3)C(C)c3ccc(OC(F)F)cc3)cc2c1` (centres undefined) the pEC50 [1] was 6.49 and the CC50 at 48 h [2] was over 5000 nM.

With `Cc1ccc2[nH]c(=O)c(CN(Cc3ccc(C(C)(C)C)cc3)[C@H](CO)c3ccccc3)cc2c1` the CC50 at 48 h [2] was over 10000 nM.

For `Cc1ccc2[nH]c(=O)c(CN(Cc3ccc(C(N)=O)cc3)Cc3ccc(C(C)(C)C)cc3)cc2c1`, the CC50 at 48 h [2] was over 5000 nM.
